Assay: Quantitation of tamoxifen and its metabolites in patient serum by LC-MS/MS
Conditions: expected values in serum
Method: In the following procedure, tamoxifen and its metabolites are extracted from serum. The serum is added to a filter plate, and then mixed with acetonitrile/IS, which then forms a precipitate. The mixture is then placed on a positive pressure manifold, and the organic fraction is passed through to a collection plate. The plate is lidded, and then placed on the Cohesive system for injection onto MS/MS. The MS is in APCI-positive mode. The quantitation is based upon unique parent-product transitions. Those analytes with similar transitions were separated chromatographically.
A 12-point calibration is used for each analyte. Initially, only one standard is made (Std-12), with a series of dilutions performed to generate the remaining standards. The standard (#12) is to be removed from the −70° C. freezer and thawed. While thawing, label twelve 12×75 mm tubes.
Add 3.0 mL of std-12 to tube 12. From this standard, you will follow the table below to create the standard curve. A standard curve is to be generated with each assay. Place the initial standard back in the −60 to −90° C. freezer.
A Thermo LC/MS/MS system containing the following modules was used for this assay:
The extraction is a protein precipitation, followed by filtration. Analysis and quantitation is then performed by LC/MS/MS.
Norendoxifen is extracted from serum using protein precipitation, followed by filtration. Analysis and quantitation is then performed by LC/MS/MS.

Compound | Reference Ranges [ng/mL]
Tamoxifen | 12.54 to 233.07

Same assay, conditions: human, in vivo

Compound | Reference Ranges [ng/mL]
4-Hydroxy Tamoxifen | 0.24 to 5.05
CC/C(=C(\c1ccccc1)c1ccc(OCCNC)cc1)c1ccccc1 [N-Desmethyl Tamoxifen] | 2.59 to 373.96
CCC(=C(c1ccccc1)c1ccc(OCCNC)cc1)c1ccc(O)cc1 [N-Desmethyl-4′-Hydroxy Tamoxifen] | 1.17 to 19.95
CC/C(=C(\c1ccccc1)c1ccc(OCCN(C)C)cc1)c1ccc(O)cc1 [4′-Hydroxy Tamoxifen] | 0.4 to 6.33
CC/C(=C(\c1ccc(O)cc1)c1ccc(OCCNC)cc1)c1ccccc1 [N-Desmethyl-4-Hydroxy Tamoxifen] | 0.93 to 43.19
